Laboratory results published in patent US8900194B2, “Microneedle devices and microneedle delivery apparatus” (3M Innovative Properties Company, priority 2002, dated 2014).

Details: human, 0 h

**Q.** Which “Nitroglycerin Cumulative Flux” value does the source give for `O=[N+]([O-])OCC(CO[N+](=O)[O-])O[N+](=O)[O-]` [Nitroglycerin, nitroglycerin] here?
**A.** 0 μg/cm^2
